Entries after “also recorded” stand apart in the source; their conditions may differ.
How the values were obtained:
[1] = biological target: T1, purified human MD-2 receptor (Homo sapiens, UniProt Q9Y6Y9); test: Biotinylated LPS displacement from MD-2 hydrophobic pocket (ELISA); format: binding; details: increasing concentrations, highest 160 μM
T1 sequence (Q9Y6Y9 19-160): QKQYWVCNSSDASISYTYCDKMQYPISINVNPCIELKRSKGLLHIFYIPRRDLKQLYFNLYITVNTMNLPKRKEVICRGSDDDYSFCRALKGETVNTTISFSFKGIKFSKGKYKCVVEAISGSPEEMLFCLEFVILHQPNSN
Method: The ability to displace LPS from MD-2 hydrophobic pocket was assessed by using an ELISA assay. Molecules FP11 and FP111 were added at increasing concentrations to MD-2 which had previously been incubated with biotinylated LPS.
The ability of the compounds to displace LPS from MD-2 hydrophobic pocket was determined by ELISA.
A microtiter plate was coated overnight at 4° C. with 100 μL/well of 5 μg/mL chicken polyclonal anti-MD-2 antibodies, diluted in 50 mM Na2CO3 buffer, pH 9.6, and blocked with 1% BSA in PBS. After washing, 1 μM MD-2 with biotin-labeled LPS was added and incubated for 2 h. After washing, the compounds were added at different concentrations and incubated for 1.5 h.
After washing, 0.5 μg/mL HRP-conjugated streptavidin (Sigma) in PBS was added, followed by detection at 420 nm after the addition of 100 μL of ABTS (Sigma). Chicken anti-MD-2 polyclonal antibodies were prepared against recombinant MD-2 by GenTel (Madison, Wis., USA),

HEK-Blue™ Null2 cells = test: HEK-Blue Null2 counter-assay (SEAP reporter, no TLR4/MD-2/CD14); format: cell-based; details: 16-18 hours
Method: (§1) HEK-Blue™ hTLR4 (FIG. 1A) and HEK-Blue™ Null2 (FIG. 1B) cells were treated with the indicated concentrations of compounds FP11, FP111, and with LPS (100 ng/mL) and incubated for 16-18 hours. Results were normalized to stimulation with LPS alone, and are expressed as mean of percentage ±ES. of at least three independent experiments.
In order to be certain that the agonist effect of compound FP11 be due to the interaction with the TLR4 receptor, the compounds were tested on the HEK-Blue™ Null2 cell line. Said line expresses the same reporter gene of HEK-Blue™ hTLR4 cells (SEAP), but has none of the receptors involved in endotoxin recognition (TLR4, MD-2, CD14).

hTLR4 = biological target: T2, hTLR4 (Homo sapiens, UniProt O00206+Q9Y6Y9); test: HEK-Blue hTLR4 SEAP reporter assay (NF-κB/AP-1 activation); format: cell-based; details: HEK-Blue hTLR4 cells, 16-18 hours, SEAP reporter
T2 construct: host or cells: HEK-Blue hTLR4 (HEK cells)
Method: as §1
HEK-Blue™ hTLR4 cells were treated with increasing concentrations of compound FP11 and of LPS and incubated for 16-18 hours. Results were normalized to maximum activation of the reporter produced by LPS (FIG. 2A) and to maximum activation of the reporter produced by the compound itself (FIG. 2B). Data were fitted to a sigmoidal four-parameter logistic equation in order to determine IC50 values, and expressed as mean of percentage ±ES of at least three independent experiments.
HEK-Blue™ hTLR4 cells are HEK cells transfected so as to stably express human receptors hTLR4, hMD-2, and hCD14 for endotoxin recognition. In addition, said cells have a reporter gene encoding for a secreted alkaline phosphatase (SEAP) μlaced under the control of specific transcription factors (NF-κB and AP-1) activated by the TLR4 signaling pathway. Therefore, the presence of LPS or of an agonist of TLR4 causes receptor dimerization, activation of the signaling pathway and of transcription factors NF-κB and AP-1, and finally SEAP production and secretion into the culture medium. SEAP levels can be subsequently quantitated by incubating the medium with compound p-nitrophenylphosphate (pNPP) and monitoring with a spectrophotometer the formation of p-nitrophenol chromogenic product at 405 nm.
HEK-Blue™ hTLR4 cells (InvivoGen) were cultured according to manufacturer's instruction. […]
Cells were detached using a cell scraper, counted and seeded in a 96-well multiwell plate at a density of 4×10^4 cells per well. […]
The wells' optical density was determined using a microplate reader set at 405 nm.
The results were normalized with positive control (LPS alone) and expressed as a mean of percentage ±SEM of at least three independent experiments.

[2] = biological target: T1, purified human MD-2 receptor; test: Surface plasmon resonance binding to MD-2
Method: Surface plasmon resonance (SPR) experiments enable the study of direct interactions between the molecules to be characterized and MD-2.
The binding affinity of the compounds to recombinant MD-2 was determined using a Biacore X100 with an NTA sensor chip (Biacore, GE Healthcare, Uppsala, Sweden). Briefly, 0.5 μM MD-2 (in 50 mM TRIS, 150 mM NaCl, 0.5% Tween 20, pH 7.5) was immobilized onto the sensor chip previously activated with 1 min pulse of 10 mM NiSO4. The first flow cell was used as a reference surface to control nonspecific binding.
Both flow cells were incubated with the analyte (in PBS, 5% DMSO, 5% EtOH, pH 7.5) at a flow rate of 10 μL/min at 25° C. at increasing concentrations. The data were analyzed with Biacore Evaluation software. KD values were calculated by global fitting of the equilibrium binding responses from various concentrations of analytes using a 1:1 Langmuir binding model.

[3] = biological target: T1, purified human MD-2 receptor; test: Anti-MD-2 antibody (9B4) competition, antibody-sandwich ELISA; format: binding; details: up to 20 μM
Method: The direct binding of molecules FP11 and FP111 to MD-2 was analyzed by using a monoclonal antibody binding MD-2, but not LPS-bound MD-2 (Viriyakosol, S., et al., Characterization of monoclonal antibodies to human soluble MD-2 protein. Hybridoma (Larchmt), 2006. 25(6): p. 349-57).
Anti-MD-2 monoclonal antibody (9B4) specifically binds an epitope near the MD-2 hydrophobic pocket, which is available for 9B4 antibody binding only when the MD-2 hydrophobic pocket is empty. Compound FP11 is accountable for a decrease of 9B4 antibody binding to MD-2 equal to 95% at a concentration of 20 μM (FIG. 3E).
The method of antibody-sandwich ELISA for the detection of the binding of compounds to MD-2 was modified from a previous study.
A microtiter plate was coated overnight at 4° C. with 100 μL/well of 5 μg/mL of chicken polyclonal anti-MD-2 antibodies, diluted in 50 mM Na2CO3 buffer, pH 9.6, and blocked with 1% BSA in PBS. After washing, 1 μM MD-2 with tested compounds was added and incubated for 2 h.
Mouse anti-MD-2 mAb (0.1 μg/mL 9B4) and goat antimouse IgG conjugated with HRP (0.1 μg/mL) in PBS were added, followed by detection at 420 nm after the addition of 100 μL of ABTS (Sigma).
Chicken anti-MD-2 polyclonal antibodies were prepared against recombinant MD-2 by GenTel (Madison, Wis., USA), monoclonal mouse anti-MD-9B4 antibodies were from eBioscience (San Diego, Calif., USA), and secondary goat antimouse IgG conjugated with horseradish peroxidase was from Santa Cruz Biotechnology (Santa Cruz, Calif., USA).

[4] = biological target: T1, purified human MD-2 receptor; test: MD-2-bound fluorescent molecule (bis-ANS) displacement assay; format: binding; details: MD-2 200 nM, bis-ANS 200 nM
Method: therefore, TLR4 modulators that interact with MD-2 compete with compound bis-ANS, and are able to displace it from MD-2.
Fluorescence was measured on PerkinElmer fluorimeter LS 55 (PerkinElmer, UK) as previously described^[5].
All measurements were done at 20° C. in a 5×5 mm quartz glass cuvette (Hellma Suprasil, Müllheim, Germany). MD-2 protein (200 nM) and 1,1′-Bis(anilino)-4,4′-bis (naphtalene)-8,8′ disulfonate (bis-ANS, 200 nM) were mixed and incubated until reaching stable relative fluorescence units (RFUs) emitted at 420-550 nm under excitation at 385 nm.
Compounds, at different concentrations, were then added, followed by relative fluorescence unit (RFU) measurement at 420-550 nm.

CD14 = details: human peripheral blood cells; cited from earlier work
[5] = test system: murine macrophages and neutrophil granulocytes; details: cited from earlier work
infective agent = details: once or thrice, myelo-suppressed or immunocompetent mice; cited from earlier work
Escherichia coli = details: one dose one day prior to microbial inoculation; cited from earlier work
[6] = tumour-affected patients; cited from earlier work
[7] = galactosamine-sensitized mice; cited from earlier work
[8] = repeated dosages; cited from earlier work

T2 sequence (O00206 24-839): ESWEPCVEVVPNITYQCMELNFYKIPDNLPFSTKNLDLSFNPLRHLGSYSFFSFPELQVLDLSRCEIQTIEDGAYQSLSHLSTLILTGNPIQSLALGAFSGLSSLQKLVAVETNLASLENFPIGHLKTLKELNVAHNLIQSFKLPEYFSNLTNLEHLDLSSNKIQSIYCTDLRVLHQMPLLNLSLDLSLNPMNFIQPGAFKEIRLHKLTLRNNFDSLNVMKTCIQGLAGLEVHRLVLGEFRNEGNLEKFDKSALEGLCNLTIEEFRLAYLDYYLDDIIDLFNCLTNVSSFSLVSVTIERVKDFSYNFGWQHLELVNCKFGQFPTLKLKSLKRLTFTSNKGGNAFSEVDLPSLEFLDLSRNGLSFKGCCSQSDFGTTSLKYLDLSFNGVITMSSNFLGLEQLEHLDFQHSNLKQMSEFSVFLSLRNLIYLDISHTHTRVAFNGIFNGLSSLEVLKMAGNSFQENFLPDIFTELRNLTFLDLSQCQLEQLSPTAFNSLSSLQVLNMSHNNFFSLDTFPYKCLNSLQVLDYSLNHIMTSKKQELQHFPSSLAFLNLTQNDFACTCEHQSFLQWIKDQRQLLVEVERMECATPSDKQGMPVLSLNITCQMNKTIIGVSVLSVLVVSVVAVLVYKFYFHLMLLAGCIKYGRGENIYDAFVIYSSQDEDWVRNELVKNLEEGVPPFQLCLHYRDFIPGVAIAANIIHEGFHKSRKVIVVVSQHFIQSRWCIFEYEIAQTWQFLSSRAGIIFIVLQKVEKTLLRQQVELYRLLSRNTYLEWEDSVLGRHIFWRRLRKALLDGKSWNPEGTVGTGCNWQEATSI
T2 sequence (Q9Y6Y9 17-160 limits assumed): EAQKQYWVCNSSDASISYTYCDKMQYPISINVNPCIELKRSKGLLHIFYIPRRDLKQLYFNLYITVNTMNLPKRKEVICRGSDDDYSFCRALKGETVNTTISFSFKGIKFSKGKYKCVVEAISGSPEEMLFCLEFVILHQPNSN

Row | Compound | ability to displace biotinylated LPS from MD-2 hydrophobic pocket [1] | activation of transcription factors NF-κB and AP-1 in cells without TLR4, MD-2, CD14 (HEK-Blue™ Null2 cells) | TLR4 agonist activity (activation of NF-κB and AP-1) (hTLR4) | direct binding to MD-2 (SPR) [2] | prevention of monoclonal antibody 9B4 binding to MD-2 [3] | decrease of bis-ANS fluorescence / inhibition of bis-ANS binding to MD-2 [4] | blocking of compound-induced TNF-α release by monoclonal antibodies for CD-14 (CD14) | stimulation of release of IL-6, IL-8 and TNF-α [5] | protective effect on prophylactic administration (infective agent) | effect on curative effects of antibiotics (Escherichia coli) | effect on granulocyte counts and serum cytokine levels [6] | safety and tolerability of administration [6] | factor of toxicity reduction compared to parent endotoxin (Salmonella abortus equi) [7] | duration of transient resistance to endotoxin-related lethal risks [8] [week]
1 | CCCCCCCCCCCCCC(=O)NC1[C@H](OP(=O)(O)O)OC(COP(=O)(O)O)[C@@H](OC(=O)CCCCCCCCCCCCC)[C@@H]1OC(=O)CCCCCCCCCCCCC (stereo partly drawn) [FP111, 1,6-O-Phosphoryl-2-deoxy-4-O-tetradecanoyl 3-O-tetradecanoyl-2-tetradecanoylamino-α-D-glucopiranoside] | unable to displace biotinylated LPS; also recorded: but not FP111, displaces biotinylated LPS | unable to activate transcription factors NF-κB and AP-1 | completely inactive | but not FP111, directly binds MD-2; also recorded: does not bind MD-2 | unable to cause a decrease of 9B4 antibody binding; also recorded: but not FP111, prevents the binding of monoclonal antibody to MD-2 | not able to induce a decrease of compound bis-ANS fluorescence; also recorded: but not FP111, inhibits the binding of bis-ANS to MD-2 |  |  |  |  |  |  |  | 
2 | CCCCCCCCCCC[C@@H](O)CC(=O)N[C@H]1[C@@H](OP(=O)(O)O)O[C@H](CO)[C@@H](OC(=O)C[C@H](O)CCCCCCCCCCC)[C@@H]1OC(=O)C[C@H](O)CCCCCCCCCCC [SDZ MRL 953] |  |  |  |  |  |  | is not blocked | potent activity in stimulating the release of inflammatory cytokines | highly protective effect | dramatically increased the curative effects of antibiotics administered | increases granulocyte counts and serum levels of G-CSF and interleukin-6 (IL-6), but not of pro-inflammatory cytokines TNF-α, IL-1b, and IL-8 | safe and of excellent tolerability | at least 10^4 | ≥ 1

Source: patent US20230037862A1, “SYNTHETIC AGONISTS OF TLR4 RECEPTOR” (UNIVERSITÀ DEGLO STUDI DI MILANO - BICOCCA, priority 2017, published 2023)
